Measurements as given in patent EP0724884B1, “SIDE EFFECT INHIBITOR FOR CANCER THERAPY” (Nakamura, Toshikazu, priority 1991, dated 1993).

Test system: primary-culture hepatocytes
Test: Leakage of GOT from primary-culture hepatocytes exposed to liver poison (Test Examples 1-4)
Format: cell-based, rat
Details: Liver poison alone, no addition of HGF (Carbon tetrachloride 5 mM; Mitomycin C 8 µM); culture for 24 hours; control 6.0 ± 0.4
Protocol: The primary culture was carried out as follows: Isolated hepatocytes were dispersed in William's medium (5% bovine serum, 10^-9 M insulin and 10^-9 M dexamethasone) and the cells were seeded in a 12-well plastic dish (Corning Co.) having the bottom coated with Type-I collagen. The culture medium was exchanged with the medium containing aprotinin at 0.5 µg/ml and without serum and hormones 2 hours later.
The protective effect of HGF on the hepatocytes was tested by the effect on the leakage to enzymes from the cytoplasm of the hepatocytes in the primary culture.
In order to mimick this phenomenon, hepatocyte primary-culture added with the liver poison was used. Thus the leakage of cytoplasmic enzymes such as GOT was measured in this culture system, and the protective activity on the hepatocytes by HGF was estimated along with measurement of the degree of inhibition of leakage of GOT or others. […]
The primary-culture hepatocytes described in Reference Example 3 were seeded at the surface density of 1.2 x 10^5 cells/cm^2 and on the next day, the medium was changed to one without serum, followed by the addition of HGF at 10 ng/ml and/or carbon tetrachloride at 5 mM. […] The GOT activity in the supernatant was measured by the conventional method. […]

`ClC(Cl)(Cl)Cl` [Carbon tetrachloride] gave a GOT activity of 12.7 ± 1.2 mU/ml.
